Data on two molecules can be found in ChEMBL document CHEMBL3046561, “Feeding deterrents from Dictamnus dasycarpus Turcz against two stored-product insects” (J Agric Food Chem, 2002).

Assay type in all cases: functional, organism-based
For experiment [1], the system named is Sitophilus zeamais. The experiment is described as follows: Antifeedant activity against adult of Sitophilus zeamais after 3 days.
In experiment [2] the test system is Tribolium castaneum. The experiment is described as follows: Antifeedant activity against adult of Tribolium castaneum (red flour beetle) after 3 days.
Experiment [3] deals with Tribolium castaneum. The experiment is described as follows: Antifeedant activity against larvae of Tribolium castaneum (red flour beetle) after 3 days.

For `C/C=C(\C)C(=O)O[C@H]1C[C@@H](OC(C)=O)[C@@]2(C(=O)OC)CO[C@H]3[C@@H](O)[C@@](C)([C@]45O[C@@]4(C)[C@@H]4C[C@H]5O[C@@H]5OC=C[C@@]54O)[C@H]4[C@]1(CO[C@]4(O)C(=O)OC)[C@@H]32` [AZADIRACHTIN A], the EC50 in experiment [1] was determined as 91.7 ppm; in experiment [2] it was 57.6 ppm; in experiment [3], 47.9 ppm.
The corresponding values for `CC(=O)O[C@@H]1C[C@H](O)[C@@]23CO[C@@H](O)[C@]1(C)[C@@H]2C[C@@H](O)[C@]1(C)[C@@H]3C(=O)[C@H](OC(C)=O)[C@@]2(C)[C@H](c3ccoc3)C[C@H]3O[C@]321` [TOOSENDANIN] are 100 ppm, 66 ppm and 48 ppm.
